Reference: patent US11247976B2, “Synthetic ligands that modulate the activity of the RhlR quorum sensing receptor” (Wisconsin Alumni Research Foundation, priority 2016, dated 2022)

Legend:
LasR = target: T1, LasR (Pseudomonas aeruginosa, UniProt P25084); test: Selectivity of RhlR antagonism over LasR antagonism (E. coli LasR reporter, vs 2 nM OdDHL); format: cell-based, P. aeruginosa; conditions: RhlR % antagonism divided by LasR % antagonism
T1 construct: expressed in transfected cells; host or cells: E. coli JLD271 (ΔsdiA) with pJN105L and pSC11
Protocol: All media and reagents for bacterial culture were purchased from commercial sources. Bacteria were cultured in Luria-Bertani broth (LB) at 37° C. with shaking at 200 rpm unless otherwise noted. The bacterial reporter strains used for this study were (i) the heterologous E. coli strain JLD271 (ΔsdiA) harboring the RhlR expression plasmid pJN105R2 and the rhlI-lacZ transcriptional fusion reporter pSC11-rhlI*, (ii) the heterologous E. coli strain JLD271 (ΔsdiA) harboring the LasR expression plasmid pJN105L and the […] transcriptional fusion reporter pSC11, and (iii) the P. aeruginosa strain PAO-JP2 (ΔlasrhlI) harboring the rhlI-gfp transcriptional fusion reporter prhlI-LVAgfp. […]
To evaluate the modulatory activities of library compounds on RhlR and LasR using E. coli reporters, the strains JLD271/pJN105R2/pSC11-rhlI* and JLD271/pJN105L/pSC11 were used, respectively, as previously described.^38, 51 The following modifications were used in the RhlR agonism reporter assay, non-native compounds (10 μM or 1 mM) were compared to 1 mM BHL as the positive control. […] For RhlR agonism assays, activities of test compounds were measured relative to 1 mM BHL (the concentration required to induce a maximal level of RhlR activity). […] Activity was measured relative to 10 μM BHL. Inhibition was calculated by subtracting 100% from the relative activity value. […]

[1] = Hydrolytic stability in buffers of varying pH by HPLC; format: physicochemical; conditions: room temperature
Protocol: To assess the relative stability of the thiolactone and homoserine lactone moieties, stability studies were performed as reported previously,^53 with the following changes. Compounds RN22 and E22 (50 μM) were dissolved in either 1 mM 2-(N-morpholino)-ethanesulfonic acid (MES) buffer at pH 6, or 1 mM tris(hydroxymethyl)-aminomethane (TRIS) buffer at pH 7, pH 8, or pH 9. Solutions were placed static at room temperature, and 150 μL aliquots were taken every two hours for eight hours, then again at 24 hours. Samples were immediately separated via HPLC, and the area under the curve (AUC) at 220 nm was calculated and compared to the area at t=0. […] Degradation of both compounds to the hydrolysis product was confirmed via mass spectrometry of the resulting byproduct peak.
P. aeruginosa media is observed to become more alkaline over time, making the hydrolytic instability of the homoserine lactone head group a concern in developing AHL-type modulators for use in the wild-type organism. […] To evaluate their stability in a more direct assay, the stability of thiolactone RN22 relative to its lactone homolog E22 was monitored over time and at varying pH values using HPLC. The amount of compound RN22 remaining over 24 h was compared to E22. […] Degradation products were confirmed to be the hydrolyzed lactone head groups via mass spectroscopy.

T1 sequence (P25084 whole entry): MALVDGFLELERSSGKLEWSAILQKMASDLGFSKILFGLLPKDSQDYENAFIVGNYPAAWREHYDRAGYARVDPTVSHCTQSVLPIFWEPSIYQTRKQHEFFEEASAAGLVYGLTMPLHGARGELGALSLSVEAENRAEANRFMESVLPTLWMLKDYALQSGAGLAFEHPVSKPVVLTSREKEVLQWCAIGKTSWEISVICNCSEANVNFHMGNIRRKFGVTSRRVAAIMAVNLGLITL

O=C(COc1ccc(I)cc1)N[C@H]1CCSC1=O [RN22]
Fold selectivity of RhlR antagonist over LasR antagonism (LasR; tested concentration 1 mM): 74 fold
Fold selectivity of RhlR antagonist over LasR antagonism (LasR; tested concentration 10 μm): 1.5 fold
half-life at 50 μM ([1]; pH 6, 1 mM MES buffer): 44 days
half-life at 50 μM ([1]; pH 7, 1 mM TRIS buffer): 47.2 days
half-life at 50 μM ([1]; pH 8, 1 mM TRIS buffer): 9.88 days
half-life at 50 μM ([1]; pH 9, 1 mM TRIS buffer): 2.18 days
